Assay results from US10442807B2, “Aryl substituted bicyclic compounds as herbicides” (FMC Corporation, priority 2015, dated 2019).

Legend:
Type in all cases: in vivo
kochia (Kochia scoparia) [1] = assay: Test A postemergence application, visual injury rating; details: approx. 10 d, 0 = no effect, 100 = complete control
Source text: (§1) Seeds of plant species selected from barnyardgrass (Echinochloa crus-galli), kochia (Kochia scoparia), ragweed (common ragweed, Ambrosia elation), ryegrass, Italian (Italian ryegrass, Lolium multiflorum), foxtail, giant (giant foxtail, Setaria faberii), and pigweed (Amaranthus retroflexus), were planted into a blend of loam soil and sand and treated preemergence with a directed soil spray using test chemicals formulated in a non-phytotoxic solvent mixture which included a surfactant. At the same time, plants selected from these weed species and also blackgrass (Alopecurus myosuroides), galium (catchweed bedstraw, Galium aparine), wheat (Triticum aestivum), and corn (Zea mays) were planted in pots containing the same blend of loam soil and sand and treated with postemergence applications of test chemicals formulated in the same manner. Plants ranged in height from 2 to 10 cm and were in the one- to two-leaf stage for the postemergence treatment. Treated plants and untreated controls were maintained in a greenhouse for approximately 10 d, after which time all treated plants were compared to untreated controls and visually evaluated for injury. Plant response ratings, summarized in Table A, are based on a 0 to 100 scale where 0 is no effect and 100 is complete control. A dash (-) response means no test result.

[2] = tested on: foxtail, giant (giant foxtail, Setaria faberii); assay: as above; details: approx. 10 d, 0 = no effect, 100 = complete control
Source text: as §1

[3] = tested on: ryegrass, Italian (Italian ryegrass, Lolium multiflorum); assay: as above; details: approx. 10 d, 0 = no effect, 100 = complete control
Source text: as §1

[4] = tested on: pigweed (Amaranthus retroflexus); assay: as above; details: approx. 10 d, 0 = no effect, 100 = complete control
Source text: as §1

[5] = tested on: galium (catchweed bedstraw, Galium aparine); assay: as above; details: approx. 10 d, 0 = no effect, 100 = complete control
Source text: as §1

[6] = tested on: ragweed (common ragweed, Ambrosia elation); assay: as above; details: approx. 10 d, 0 = no effect, 100 = complete control
Source text: as §1

[7] = tested on: barnyardgrass (Echinochloa crus-galli); assay: as above; details: approx. 10 d, 0 = no effect, 100 = complete control
Source text: as §1

corn (Zea mays) = assay: as above; details: approx. 10 d, 0 = no effect, 100 = complete control
Source text: as §1

[8] = tested on: wheat (Triticum aestivum); assay: as above; details: approx. 10 d, 0 = no effect, 100 = complete control
Source text: as §1

[9] = tested on: blackgrass (Alopecurus myosuroides); assay: as above; details: approx. 10 d, 0 = no effect, 100 = complete control
Source text: as §1

rice (Oryza sativa) = assay: Test B flooded paddy test, visual plant response rating; details: 250 g ai/ha; applied to paddy water at 2-leaf stage; rated after 13 to 15 days; scale 0 to 100, 0 is no effect, 100 is complete control
Source text: (§2) At time of treatment, test pots were flooded to 3 cm above the soil surface, treated by application of test compounds directly to the paddy water, and then maintained at that water depth for the duration of the test. Treated plants and controls were maintained in a greenhouse for 13 to 15 days, after which time all species were compared to controls and visually evaluated. Plant response ratings, summarized in Table B, are based on a scale of 0 to 100 where 0 is no effect and 100 is complete control. A dash (-) response means no test result.

[10] = tested on: sedge, umbrella (small-flower umbrella sedge, Cyperus difformis); assay: as above; details: 250 g ai/ha; applied to paddy water at 2-leaf stage; rated after 13 to 15 days; scale 0 to 100, 0 is no effect, 100 is complete control
Source text: as §2

[11] = tested on: barnyardgrass (Echinochloa crus-galli); assay: as above; details: 250 g ai/ha; applied to paddy water at 2-leaf stage; rated after 13 to 15 days; scale 0 to 100, 0 is no effect, 100 is complete control
Source text: as §2

[12] = tested on: ducksalad (Heteranthera limosa); assay: as above; details: 250 g ai/ha; applied to paddy water at 2-leaf stage; rated after 13 to 15 days; scale 0 to 100, 0 is no effect, 100 is complete control
Source text: as §2

kochia (Kochia scoparia) [13] = assay: Test A preemergence, directed soil spray, visual injury rating; details: approx. 10 d, 0 = no effect, 100 = complete control
Source text: as §1

[14] = tested on: foxtail, giant (giant foxtail, Setaria faberii); assay: as above; details: approx. 10 d, 0 = no effect, 100 = complete control
Source text: as §1

[15] = tested on: ryegrass, Italian (Italian ryegrass, Lolium multiflorum); assay: as above; details: approx. 10 d, 0 = no effect, 100 = complete control
Source text: as §1

[16] = tested on: pigweed (Amaranthus retroflexus); assay: as above; details: approx. 10 d, 0 = no effect, 100 = complete control
Source text: as §1

[17] = tested on: ragweed (common ragweed, Ambrosia elation); assay: as above; details: approx. 10 d, 0 = no effect, 100 = complete control
Source text: as §1

[18] = tested on: barnyardgrass (Echinochloa crus-galli); assay: as above; details: approx. 10 d, 0 = no effect, 100 = complete control
Source text: as §1

SMILES | Kochia plant response rating (0 to 100 scale) (kochia (Kochia scoparia) [1]; 125 g ai/ha) | Kochia plant response rating (0 to 100 scale) (kochia (Kochia scoparia) [1]; 500 g ai/ha) | Foxtail, Giant plant response rating (0 to 100 scale) ([2]; 125 g ai/ha) | Foxtail, Giant plant response rating (0 to 100 scale) ([2]; 500 g ai/ha) | Ryegrass, Italian plant response rating (0 to 100 scale) ([3]; 125 g ai/ha) | Ryegrass, Italian plant response rating (0 to 100 scale) ([3]; 500 g ai/ha) | Pigweed plant response rating (0 to 100 scale) ([4]; 125 g ai/ha) | Pigweed plant response rating (0 to 100 scale) ([4]; 500 g ai/ha) | Galium plant response rating (0 to 100 scale) ([5]; 125 g ai/ha) | Galium plant response rating (0 to 100 scale) ([5]; 500 g ai/ha) | Ragweed plant response rating (0 to 100 scale) ([6]; 125 g ai/ha) | Ragweed plant response rating (0 to 100 scale) ([6]; 500 g ai/ha) | Barnyardgrass plant response rating (0 to 100 scale) ([7]; 125 g ai/ha) | Barnyardgrass plant response rating (0 to 100 scale) ([7]; 500 g ai/ha) | Corn plant response rating (0 to 100 scale) (corn (Zea mays); 125 g ai/ha) | Corn plant response rating (0 to 100 scale) (corn (Zea mays); 500 g ai/ha) | Wheat plant response rating (0 to 100 scale) ([8]; 125 g ai/ha) | Wheat plant response rating (0 to 100 scale) ([8]; 500 g ai/ha) | Blackgrass plant response rating (0 to 100 scale) ([9]; 125 g ai/ha) | Blackgrass plant response rating (0 to 100 scale) ([9]; 500 g ai/ha) | further results
CCc1ccc(C2Cn3c(C)nnc3C2C(=O)Nc2cccc(F)c2C)cc1 (stereo not drawn) [Compound 9] | 0 | 0 | 0 | 50 | 0 | 20 | 0 | 0 | 0 | 20 | 0 | 0 | 30 | 70 | 0 | 0 | 0 | 0 | 20 | 70 | Plant response rating, Flood, Rice (rice (Oryza sativa)): 15; Plant response rating, Flood, Sedge, Umbrella [10]: 0; Plant response rating, Flood, Barnyardgrass [11]: 20; Plant response rating, Flood, Ducksalad [12]: 75; Kochia plant response rating (0 to 100 scale) (kochia (Kochia scoparia) [13]; 125 g ai/ha): 0; Kochia plant response rating (0 to 100 scale) (kochia (Kochia scoparia) [13]; 500 g ai/ha): 0; Foxtail, Giant plant response rating (0 to 100 scale) ([14]; 125 g ai/ha): 60; Foxtail, Giant plant response rating (0 to 100 scale) ([14]; 500 g ai/ha): 90; Ryegrass, Italian plant response rating (0 to 100 scale) ([15]; 125 g ai/ha): 0; Ryegrass, Italian plant response rating (0 to 100 scale) ([15]; 500 g ai/ha): 0; Pigweed plant response rating (0 to 100 scale) ([16]; 125 g ai/ha): 0; Pigweed plant response rating (0 to 100 scale) ([16]; 500 g ai/ha): 0; Ragweed plant response rating (0 to 100 scale) ([17]; 125 g ai/ha): 0; Ragweed plant response rating (0 to 100 scale) ([17]; 500 g ai/ha): 0; Barnyardgrass plant response rating (0 to 100 scale) ([18]; 125 g ai/ha): 40; Barnyardgrass plant response rating (0 to 100 scale) ([18]; 500 g ai/ha): 70
Cc1ccc(C2Cn3c(C)nnc3C2C(=O)Nc2cccc(F)c2C)cc1C (stereo not drawn) [Compound 10] | 0 | 30 | 30 | 80 | 0 | 30 | 0 | 0 | 0 | 50 | 0 | 20 | 50 | 90 | 20 | 40 | 30 | 30 | 0 | 70 | Plant response rating, Flood, Rice (rice (Oryza sativa)): 0; Plant response rating, Flood, Sedge, Umbrella [10]: 0; Plant response rating, Flood, Barnyardgrass [11]: 20; Plant response rating, Flood, Ducksalad [12]: 45; Kochia plant response rating (0 to 100 scale) (kochia (Kochia scoparia) [13]; 125 g ai/ha): 0; Kochia plant response rating (0 to 100 scale) (kochia (Kochia scoparia) [13]; 500 g ai/ha): 50; Foxtail, Giant plant response rating (0 to 100 scale) ([14]; 125 g ai/ha): 80; Foxtail, Giant plant response rating (0 to 100 scale) ([14]; 500 g ai/ha): 90; Ryegrass, Italian plant response rating (0 to 100 scale) ([15]; 125 g ai/ha): 0; Ryegrass, Italian plant response rating (0 to 100 scale) ([15]; 500 g ai/ha): 70; Pigweed plant response rating (0 to 100 scale) ([16]; 125 g ai/ha): 0; Pigweed plant response rating (0 to 100 scale) ([16]; 500 g ai/ha): 20; Ragweed plant response rating (0 to 100 scale) ([17]; 125 g ai/ha): 0; Ragweed plant response rating (0 to 100 scale) ([17]; 500 g ai/ha): 0; Barnyardgrass plant response rating (0 to 100 scale) ([18]; 125 g ai/ha): 50; Barnyardgrass plant response rating (0 to 100 scale) ([18]; 500 g ai/ha): 90
CCc1ccc(C2Cn3cnnc3C2C(=O)Nc2cccc(F)c2F)cc1 (stereo not drawn) [Compound 11] | 40 | 50 | 40 | 70 | 0 | 50 | 0 | 0 | 20 | 50 | 0 | 30 | 70 | 80 | 0 | 30 | 0 | 20 | 0 | 20 | Plant response rating, Flood, Rice (rice (Oryza sativa)): 0; Plant response rating, Flood, Sedge, Umbrella [10]: 70; Plant response rating, Flood, Barnyardgrass [11]: 0; Plant response rating, Flood, Ducksalad [12]: 95; Kochia plant response rating (0 to 100 scale) (kochia (Kochia scoparia) [13]; 125 g ai/ha): 60; Kochia plant response rating (0 to 100 scale) (kochia (Kochia scoparia) [13]; 500 g ai/ha): 70; Foxtail, Giant plant response rating (0 to 100 scale) ([14]; 125 g ai/ha): 80; Foxtail, Giant plant response rating (0 to 100 scale) ([14]; 500 g ai/ha): 90; Ryegrass, Italian plant response rating (0 to 100 scale) ([15]; 125 g ai/ha): 0; Ryegrass, Italian plant response rating (0 to 100 scale) ([15]; 500 g ai/ha): 30; Pigweed plant response rating (0 to 100 scale) ([16]; 125 g ai/ha): 30; Pigweed plant response rating (0 to 100 scale) ([16]; 500 g ai/ha): 30; Ragweed plant response rating (0 to 100 scale) ([17]; 125 g ai/ha): 0; Ragweed plant response rating (0 to 100 scale) ([17]; 500 g ai/ha): 40; Barnyardgrass plant response rating (0 to 100 scale) ([18]; 125 g ai/ha): 70; Barnyardgrass plant response rating (0 to 100 scale) ([18]; 500 g ai/ha): 90
O=C(Nc1cccc(F)c1F)C1c2nncn2CC1c1ccc(C(F)(F)F)cc1 (stereo not drawn) [Compound 12] | 20 | 60 | 30 | 90 | 0 | 60 | 0 | 70 | 30 | 70 | 0 | 50 | 30 | 90 | 0 | 60 | 0 | 40 | 0 | 60 | Plant response rating, Flood, Rice (rice (Oryza sativa)): 0; Plant response rating, Flood, Sedge, Umbrella [10]: 0; Plant response rating, Flood, Barnyardgrass [11]: 0; Plant response rating, Flood, Ducksalad [12]: 75; Kochia plant response rating (0 to 100 scale) (kochia (Kochia scoparia) [13]; 125 g ai/ha): 30; Kochia plant response rating (0 to 100 scale) (kochia (Kochia scoparia) [13]; 500 g ai/ha): 80; Foxtail, Giant plant response rating (0 to 100 scale) ([14]; 125 g ai/ha): 90; Foxtail, Giant plant response rating (0 to 100 scale) ([14]; 500 g ai/ha): 90; Ryegrass, Italian plant response rating (0 to 100 scale) ([15]; 125 g ai/ha): 40; Ryegrass, Italian plant response rating (0 to 100 scale) ([15]; 500 g ai/ha): 60; Pigweed plant response rating (0 to 100 scale) ([16]; 125 g ai/ha): 30; Pigweed plant response rating (0 to 100 scale) ([16]; 500 g ai/ha): 80; Ragweed plant response rating (0 to 100 scale) ([17]; 125 g ai/ha): 0; Ragweed plant response rating (0 to 100 scale) ([17]; 500 g ai/ha): 50; Barnyardgrass plant response rating (0 to 100 scale) ([18]; 125 g ai/ha): 20; Barnyardgrass plant response rating (0 to 100 scale) ([18]; 500 g ai/ha): 80
